Structures can show the parent of a compound that is named as a salt.
Test system: behaviors of compound-treated mice
Test: Neuropharmacological Assay (SmartCube)
Assay type: in vivo
Conditions: for minimal effective dose: Mus musculus, ip, 0.25 h, dose having 50% or more total activity in SmartCube, i.p., read-out: MED (minimal effective dose); for AD: ADHD (probability that activity matches class) / AG: analgesic (probability that activity matches class) / AX: anxiolytic (probability that activity matches class) / CE: cognitive enhancer (probability that activity matches class) / DP: anti-depressant (probability that activity matches class) / MS: mood stabilizer (probability that activity matches class) / PS: anti-psychotic (probability that activity matches class) / SD: sedative hypnotic (probability that activity matches class) / UN: uncharacterized CNS activity (probability that activity matches class): i.p. 15 min before behavioral test, most efficacious dose(s) of 3 doses
How it was run: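 Mice dosed i.p. 15 min before testing, with compound in N-methyl-2-pyrrolidone/PEG/propylene glycol, were video-recorded and algorithmically compared with reference-drug behavioral signatures. This gave class-match probabilities (antidepressant, anxiolytic, etc.) at the most efficacious of 3 doses. MED was defined as the dose with ≥50% total activity, usually tested across 0.3–30 mpk.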

Structure (SMILES) | minimal effective dose [mg/kg] | AD: ADHD (probability that activity matches class) | AG: analgesic (probability that activity matches class) | AX: anxiolytic (probability that activity matches class) | CE: cognitive enhancer (probability that activity matches class) | DP: anti-depressant (probability that activity matches class) | MS: mood stabilizer (probability that activity matches class) | PS: anti-psychotic (probability that activity matches class) | SD: sedative hypnotic (probability that activity matches class) | UN: uncharacterized CNS activity (probability that activity matches class)
CNC[C@H]1OCCCc2c(-c3ccncc3)cccc21 (single isomer, unassigned) [Compound 149] | ≤ 3 | ++ (5% ≤ ++ <25%) | + (LOQ ≤ + <5%) | ++ (5% ≤ ++ <25%) | + (LOQ ≤ + <5%) | ++++ (50% ≤ ++++) | + (LOQ ≤ + <5%) | + (LOQ ≤ + <5%) | + (LOQ ≤ + <5%) | ++ (5% ≤ ++ <25%)
NC[C@@H]1OCCc2c(-c3ncc[nH]3)cccc21 (single isomer, unassigned) [Compound 108, hydrochloride salt] | 10 to 30 | + (LOQ ≤ + <5%) | ++ (5% ≤ ++ <25%) | ++ (5% ≤ ++ <25%) | + (LOQ ≤ + <5%) | ++ (5% ≤ ++ <25%) | + (LOQ ≤ + <5%) | ++ (5% ≤ ++ <25%) | ++ (5% ≤ ++ <25%) | +++ (25% ≤ +++ <50%)
c1cc(-c2ccncc2)c2c(c1)[C@H](CNC1CC1)OCC2 (single isomer, unassigned) [Compound 180, hydrochloride salt] | 3 to 10 | + (LOQ ≤ + <5%) | + (LOQ ≤ + <5%) | ++ (5% ≤ ++ <25%) | + (LOQ ≤ + <5%) | ++ (5% ≤ ++ <25%) | + (LOQ ≤ + <5%) | + (LOQ ≤ + <5%) | + (LOQ ≤ + <5%) | ++++ (50% ≤ ++++)
CNC[C@H]1OCCc2c(-c3cncs3)cccc21 (single isomer, unassigned) [Compound 69, hydrochloride salt] | ≤ 3 | + (LOQ ≤ + <5%) | + (LOQ ≤ + <5%) | ++ (5% ≤ ++ <25%) | + (LOQ ≤ + <5%) | ++++ (50% ≤ ++++) | + (LOQ ≤ + <5%) | + (LOQ ≤ + <5%) | ++ (5% ≤ ++ <25%) | + (LOQ ≤ + <5%)
NC[C@H]1OCCCc2c(-c3ccncn3)cccc21 (single isomer, unassigned) [Compound 167] | 10 to 30 | + (LOQ ≤ + <5%) | + (LOQ ≤ + <5%) | + (LOQ ≤ + <5%) | + (LOQ ≤ + <5%) | + (LOQ ≤ + <5%) | + (LOQ ≤ + <5%) | + (LOQ ≤ + <5%) | + (LOQ ≤ + <5%) | + (LOQ ≤ + <5%)
CNC[C@@H]1OCCCc2c(-c3ccccn3)cccc21 (single isomer, unassigned) [Compound 156, hydrochloride salt] | 10 to 30 | + (LOQ ≤ + <5%) | + (LOQ ≤ + <5%) | + (LOQ ≤ + <5%) | + (LOQ ≤ + <5%) | + (LOQ ≤ + <5%) | + (LOQ ≤ + <5%) | + (LOQ ≤ + <5%) | + (LOQ ≤ + <5%) | + (LOQ ≤ + <5%)
CNCC1OCCc2c(-c3cnccn3)cccc21 (stereo not shown) [Compound 56, N-Methyl-1-(5-(pyrazin-2-yl)isochroman-1-yl)methanamine hydrochloride salt] | 3 to 10 | ++ (5% ≤ ++ <25%) | + (LOQ ≤ + <5%) | ++ (5% ≤ ++ <25%) | + (LOQ ≤ + <5%) | ++++ (50% ≤ ++++) | + (LOQ ≤ + <5%) | + (LOQ ≤ + <5%) | + (LOQ ≤ + <5%) | + (LOQ ≤ + <5%)
CNC[C@H]1OCCc2c(-c3ccccc3)cccc21 (single isomer, unassigned) [Compound 129, hydrochloride salt] | 3 to 10 | + (LOQ ≤ + <5%) | + (LOQ ≤ + <5%) | + (LOQ ≤ + <5%) | ++ (5% ≤ ++ <25%) | ++++ (50% ≤ ++++) | + (LOQ ≤ + <5%) | + (LOQ ≤ + <5%) | ++ (5% ≤ ++ <25%) | + (LOQ ≤ + <5%)
NC[C@@H]1OCCc2c(-c3ccccn3)cccc21 (single isomer, unassigned) [Compound 45, hydrochloride] | 10 to 30 | + (LOQ ≤ + <5%) | ++ (5% ≤ ++ <25%) | ++ (5% ≤ ++ <25%) | + (LOQ ≤ + <5%) | ++ (5% ≤ ++ <25%) | + (LOQ ≤ + <5%) | + (LOQ ≤ + <5%) | + (LOQ ≤ + <5%) | +++ (25% ≤ +++ <50%)
CNC[C@H]1OCCc2c(-c3cc(C)nc(C)c3)cccc21 [Compound 125, (S)-1-(5-(2,6-dimethylpyridin-4-yl)isochroman-1-yl)-N-methylmethanamine dihydrochloride] | ≤ 3 | + (LOQ ≤ + <5%) | + (LOQ ≤ + <5%) | + (LOQ ≤ + <5%) | + (LOQ ≤ + <5%) | ++++ (50% ≤ ++++) | + (LOQ ≤ + <5%) | + (LOQ ≤ + <5%) | + (LOQ ≤ + <5%) | ++++ (50% ≤ ++++)
CNC[C@@H]1OCCCc2c(-c3ccncn3)cccc21 (single isomer, unassigned) [Compound 164, hydrochloride salt] | 10 to 30 | + (LOQ ≤ + <5%) | + (LOQ ≤ + <5%) | + (LOQ ≤ + <5%) | + (LOQ ≤ + <5%) | + (LOQ ≤ + <5%) | + (LOQ ≤ + <5%) | + (LOQ ≤ + <5%) | + (LOQ ≤ + <5%) | + (LOQ ≤ + <5%)
CNC[C@H]1OCCc2c(-c3ccnnc3)cccc21 (single isomer, unassigned) [Compound 77, hydrochloride salt] | ≤ 3 | + (LOQ ≤ + <5%) | + (LOQ ≤ + <5%) | ++ (5% ≤ ++ <25%) | + (LOQ ≤ + <5%) | ++++ (50% ≤ ++++) | + (LOQ ≤ + <5%) | + (LOQ ≤ + <5%) | + (LOQ ≤ + <5%) | + (LOQ ≤ + <5%)
CNC[C@H]1OCCCc2c(-c3ccccn3)cccc21 (single isomer, unassigned) [Compound 157, hydrochloride salt] | 10 to 30 | + (LOQ ≤ + <5%) | + (LOQ ≤ + <5%) | ++ (5% ≤ ++ <25%) | + (LOQ ≤ + <5%) | + (LOQ ≤ + <5%) | + (LOQ ≤ + <5%) | + (LOQ ≤ + <5%) | + (LOQ ≤ + <5%) | + (LOQ ≤ + <5%)

— US10780074B2, “Compounds and uses thereof” (Sunovion Pharmaceuticals Inc., priority 2017, dated 2020)
